Where two headings read alike, the source gives them in different places.
Key:
[1] = system: Histamine-induced broncho-constriction; experiment: Antagonism of histamine-induced broncho-constriction (guinea-pig); type: in vivo; settings: Cavia porcellus, iv, read-out: % INHIBITION (± S.D.) of histamine-induced broncho-constriction
Experimental: The activity of the 18.xi.-, 19.xi.- and 20.xi.-hydroxy-prostaglandin derivatives on the respiratory tract misculature was further confirmed by determination of their ability to antagonize histamine-induced bronchoconstriction. This test is a modification of the guinea-pig multiparameter test, cannulations being carried out only for recording blood pressure, tracheal segment pressure and bronchial resistance.
Histamine was injected i.v. in a dose of 4 μg (as base) at regular intervals throughout the experiment. If extra doses of sodium pentobarbitone had to be administered during the course of the experiment to suppress voluntary respiration, the interval to the next dose of histamine was lengthened.
Test compounds were injected i.v. one minute before histamine in volumes less than 0.5 ml. The substances were washed in with 0.3 ml sterile saline. The lungs were artificially over-ventilated one minute prior to injection of the test compounds.
The ability of the compounds to counteract histamine-induced bronchoconstriction and the increase in tracheal segment pressure was determined using two dose levels--a low one and a high one.

[2] = system: bronchioles (bronchial resistance); experiment: Guinea-pig multiparameter test: bronchial resistance; type: in vivo; settings: anaesthetized guinea-pig
Experimental: (§1) The selective activity of the hydroxy-prostaglandin derivatives of the present invention was established by a multiparameter guinea-pig test. In this test guinea-pigs weighing 600-900 g are anaesthetized with sodium pentobarbitone (45 mg/kg, i.p.). Supplementary doses of sodium pentobarbitone (3-6 mg i.v.) are administered when required (i.e. when spontaneous respiration appears). The jugular vein is cannulated for the administration of drugs. The guinea-pig is artificially respired with N2 O/O2 (7/3), using a Keuskamp respirator.
(§2) Then the following functions are measured:
b. Bronchial resistance and tracheal segment pressure.
A cannula is inserted into the trachea as close as possible to the thorax. The guinea-pig is artificially ventilated at 55 strokes/min. The pressure changes, assumed to be due to changes caused by the bronchioles, are measured by a pressure transducer attached to a side arm of the cannula. The trachea is occluded at its lower end with a blind-ended cannula, while a cannula is further introduced into the trachea as close as possible to the larynx. The system is completely filled with saline, and connected to a very sensitive pressure transducer. Changes in the pressure measured (cm H2 O) are assumed to reflect changes in the tone of the smooth muscle of the trachea. The trachea segment cannula is inserted with extreme caution so as to avoid disruption of the nerve or blood supply to the segment.

[3] = system: uterus (uterine motility); experiment: Guinea-pig multiparameter test: uterine contractions; type: in vivo; settings: anaesthetized guinea-pig
Experimental: as §1, §2
d. Measurement of uterine motility.
A polyethylene cannula is inserted into the uterus via the vagina to a depth of 2.5 cm. This is then tied off with a ligature around the cervix. The cannula is connected to a pressure transducer, the whole system being filled with liquid paraffin at a pressure of 10-20 mm Hg.

[4] = system: duodenum (intestinal motility); experiment: Guinea-pig multiparameter test: intestinal contractions; type: in vivo; settings: anaesthetized guinea-pig
Experimental: as §1, §2
c. Measurement of intestinal motility.
A balloon, containing distilled water and connected to a pressure transducer, is inserted in the duodenum of the guinea-pig. Care is taken on ligaturing the cannula to avoid stricture of the duodenum. The balloon is at a pressure of 10-20 mm Hg.

[5] = cited from earlier work
rabbit eye = experiment: Irritation following topical application in the rabbit eye (Draize scoring method); type: in vivo
Excerpt: This effect can be studied using the Draize scoring method for determining irritation following topical application in the rabbit eye.

CCC(O)CC[C@H](O)/C=C/[C@H]1CCC(=O)[C@@H]1C/C=C\CCCC(=O)O (stereo partly drawn) [9-keto-15α,18.xi.-dihydroxy-prosta-5(c),13(t)-dienoic acid]
inhibition in vivo at 0.001 mg [1]: 45%

CCC(O)CC[C@H](O)/C=C/[C@H]1[C@H](O)CC(=O)[C@@H]1C/C=C\CCCC(=O)O (stereo partly drawn) [9-keto-11α,15α,18.xi.-trihydroxy-prosta-5(c),13(t)-dienoic acid]
inhibition in vivo at 0.001 mg [1]: ~35%

O=C(O)CCCCCC[C@H]1[C@H](O)CC[C@@H]1/C=C/[C@@H](O)CCCCCO (relative stereo) [9β,15α,20-trihydroxy-prost-13(t)-enoic acid]
BRONCHIAL resistance ([2]; dose 500 μg): 0
UTERINE contractions ([3]; dose 500 μg): 0
INTESTINAL contractions ([4]; dose 500 μg): 0
inhibition in vivo at 0.1 mg [1]: 52.9%

CCC(O)CC[C@H](O)/C=C/[C@H]1CCC(=O)[C@@H]1CCCCCCC(=O)O (relative stereo) [9-keto-15α,18.xi.-dihydroxy-prost-13(t)-enoic acid]
BRONCHIAL resistance ([2]; dose 100 μg): 0
UTERINE contractions ([3]; dose 100 μg): 0
INTESTINAL contractions ([4]; dose 100 μg): 0
inhibition in vivo at 0.001 mg [1]: 25.9%
inhibition in vivo at 0.1 mg [1]: ~80%

CCCCC[C@H](O)/C=C/[C@H]1[C@H](O)CC(=O)[C@@H]1C/C=C\CCCC(=O)O [PGE2, 9-keto-11α,15α-dihydroxy-prosta-5(c),13(t)-dienoic acid]
persistant coughing on aerosol use [5]: persistant coughing

CC(O)CCC[C@H](O)/C=C/[C@H]1[C@H](O)CC(=O)[C@@H]1CCCCCCC(=O)O (stereo partly drawn) [9-keto-11α,15α,19.xi.-trihydroxy-prost-13(t)-enoic acid]
inhibition in vivo at 0.001 mg [1]: ~60%

CC(O)CCC[C@H](O)/C=C/[C@H]1CC[C@@H](O)[C@@H]1CCCCCCC(=O)O (relative stereo) [9β,15α,19.xi.-trihydroxy-prost-13(t)-enoic acid]
BRONCHIAL resistance ([2]; dose 500 μg): 0
UTERINE contractions ([3]; dose 500 μg): 0
INTESTINAL contractions ([4]; dose 500 μg): 0
inhibition in vivo at 0.1 mg [1]: 62.5%

CC(O)CCC[C@@H](O)/C=C/[C@H]1CC[C@H](O)[C@@H]1CCCCCCC(=O)O (relative stereo) [9α,15β,19.xi.-trihydroxy-prost-13-(t)-enoic acid]
inhibition in vivo at 0.5 mg [1]: ~60%

CC(O)CCC[C@H](O)/C=C/[C@H]1[C@H](O)CC(=O)[C@@H]1C/C=C\CCCC(=O)O (stereo partly drawn) [9-keto-11α,15α,19.xi.-trihydroxy-prosta-5(c),13(t)-dienoic acid]
inhibition in vivo at 0.001 mg [1]: ~70%

CCC(O)CC[C@H](O)/C=C/[C@H]1CC[C@@H](O)[C@@H]1CCCCCCC(=O)O (relative stereo) [9β,15α,18.xi.-trihydroxy-prost-13(t)-enoic acid]
BRONCHIAL resistance ([2]; dose 500 μg): 0
UTERINE contractions ([3]; dose 500 μg): 0
INTESTINAL contractions ([4]; dose 500 μg): 0
inhibition in vivo at 0.1 mg [1]: 28.1%

CC(O)CCC[C@@H](O)/C=C/[C@H]1CCC(=O)[C@@H]1CCCCCCC(=O)O (relative stereo) [9-keto-15β,19.xi.-dihydroxy-prost-13(t)-enoic acid]
inhibition in vivo at 0.5 mg [1]: ~85%

CCC(O)CC[C@H](O)/C=C/[C@H]1[C@H](O)CC(=O)[C@@H]1CCCCCCC(=O)O (stereo partly drawn) [9-keto-11α,15α,18.xi.-trihydroxy-prost-13(t)-enoic acid]
inhibition in vivo at 0.001 mg [1]: ~70%

CC(O)CCC[C@H](O)/C=C/[C@H]1CCC(=O)[C@@H]1C/C=C\CCCC(=O)O (stereo partly drawn) [9-keto-15α,19.xi.-dihydroxy-prosta-5(c),13(t)-dienoic acid]
inhibition in vivo at 0.001 mg [1]: 50.3%

CCCCC[C@H](O)/C=C/[C@H]1[C@H](O)CC(=O)[C@@H]1CCCCCCC(=O)O [PGE1, 9-keto-11α,15α-dihydroxy-prost-13(t)-enoic acid, reference compound]
BRONCHIAL resistance ([2]; dose 5 μg): 0
UTERINE contractions ([3]; dose 5 μg): 0
threshold irritant dose (rabbit eye): 1 μg/eye
inhibition in vivo at 0.0001 mg ([1]; dose 0.1 μg i.v., one minute before histamine 4 μg i.v.): 27.6%
inhibition in vivo at 0.001 mg ([1]; dose 1 μg i.v., one minute before histamine 4 μg i.v.): 53.2%
inhibition in vivo at 0.005 mg ([1]; dose 5.0 μg i.v., one minute before histamine 4 μg i.v.): ~88%

CC(O)CCC[C@H](O)/C=C/[C@H]1CCC(=O)[C@@H]1CCCCCCC(=O)O (relative stereo) [9-keto-15α,19.xi.-dihydroxy-prost-13(t)-enoic acid]
BRONCHIAL resistance ([2]; dose 100 μg): 0
UTERINE contractions ([3]; dose 100 μg): 0
INTESTINAL contractions ([4]; dose 100 μg): 0
inhibition in vivo at 0.001 mg [1]: 23.9%
inhibition in vivo at 0.1 mg [1]: 88.1%

O=C(O)CCC/C=C\C[C@H]1C(=O)CC[C@@H]1/C=C/[C@@H](O)CCCCCO [9-keto-15α,20-dihydroxy-prosta-5(c),13(t)-dienoic acid]
inhibition in vivo at 0.001 mg [1]: 60.7%
